Measured values as given in patent US12605358B2, “Composition for preventing or treating nervous system diseases comprising compound that inhibits mTOR signaling pathway as active ingredient” (ALIAD BIOPHARMA, priority 2021, dated 2026).

Test system: primary cultured hippocampal neurons
Experiment: LC3-eGFP puncta formation assay (autophagy promotion)
Assay type: cell-based, rat
Conditions: rapamycin and HN-1703 at 0.1 μM and 0.5 μM respectively, 12 hours; FIG. 3A
Protocol: Primary neurons culture was performed from the hippocampus of rat (SD, Orient Bio) embryonic 16-day (E16) embryos. The left and right hemispheres of the extracted brain were separated using sterile tweezers under a dissecting microscope, the meninges were peeled off, the hippocampus was cut with No. 55 tweezers, and neural progenitor cells were mechanically dissolved in a Ca^2+/Mg^2+-free HBSS (Invitrogen) solution by pipetting with a pasteur pipette (Falcon, 354647). Undissolved tissues or vascular cells were settled, and then a supernatant was taken to measure the cell number and the isolated cells were seeded at 19,000 cells/cm^2 in a 35 mm culture dish coated with poly-L-ornithine (sigma, P3655) and fibronectin (sigma, F4759). The cells were cultured using a serum-free N2 medium (growth medium) added with 10 ng/mL bFGF (Invitrogen) in a 5% CO2 incubator, and the culture medium was replaced after 6 hours and after 24 hours. After 2 days, when the cells proliferated twice or more, subculture was performed.
After 3 days of the primary neural progenitor cell culture, a process of subculturing with 0.05% trypsin was repeated twice, and DNA electroporation or transfection was performed before seeding. […]
The number of cell nuclei labeled with DAPI and the number of cells expressing green fluorescence by overlapping LC3-eGFP expression and DAPI labeling were measured. The number of eGFP-LC3 puncta was measured per cell, and the signal intensity of puncta was measured using a confocal laser microscope program. […]
The autophagy promoting effect of HN-1703 in neurons differentiated by culturing hippocampal neural progenitor cells from rat embryos (E16) was evaluated by performing an LC3-eGFP puncta formation assay. The neural progenitor cells into which an LC3-eGFP recombinant gene was introduced by electroporation were differentiated into neurons, treated with rapamycin and HN-1703 at concentrations of 0.1 μM and 0.5 μM for 12 hours, respectively, and the puncta of LC3-GFP were scanned with a confocal laser microscope (Zeiss, LSM800) to measure the fluorescence intensity of LC3-eGFP and the number of puncta, and the results were illustrated in FIG. 3. Specifically, FIG. 3A illustrates confocal scanning micrographs of LC3-eGFP puncta formation after treated primary cultured hippocampal neurons overexpressing an LC3-eGFP fusion protein with HN-1703, and quantifying the number and fluorescence intensity of LC3-eGFP puncta per cell, and FIG. 3B illustrates a result of LC3-II turnover analysis.

`CO[C@H]1C[C@@H]2CC[C@@H](C)[C@@](O)(O2)C(=O)C(=O)N2CCCC[C@H]2C(=O)O[C@H]([C@H](C)C[C@@H]2CC[C@@H](O)[C@H](OC)C2)CC(=O)[C@H](C)/C=C(\C)[C@@H](O)[C@@H](OC)C(=O)[C@H](C)C[C@H](C)/C=C/C=C/C=C/1C` [rapamycin, reference compound] was tested, and the “increase of the number of LC3-eGFP puncta compared to a control group” value was 49% and the “increase of the signal intensity of LC3-eGFP puncta compared to the control group” value was 15%.
